Experimental data taken from patent US20140228349A1, “5,7-SUBSTITUTED-IMIDAZO[1,2-C]PYRIMIDINES” (Array BioPharma Inc., priority 2011, published 2014).

Assays:
Format in all cases: biochemical
[1] = biological target: T1, JAK2 (Homo sapiens, UniProt O60674); assay: JAK2 Inhibition Assay (Omnia kinase fluorescence peptide substrate); settings: averaged IC50 ranges; 25 μM (Km app) or 1 mM ATP, 5 nM JAK2
T1 construct: purchased Invitrogen Corporation, Carlsbad, Calif; IVGN PV4288

[2] = biological target: T2, Human Tyk2 kinase domain (Homo sapiens, UniProt P29597); assay: Tyk2 Inhibition Assay (Omnia kinase fluorescence peptide substrate); settings: averaged IC50 ranges; 10 μM (Km app) or 1 mM ATP, 2 nM Tyk2
T2 construct: comprising amino acids 886 to 1187; His10 (10 histidine residues) (C, cleaved yes); made in house
T2 sequence (P29597 886-1187): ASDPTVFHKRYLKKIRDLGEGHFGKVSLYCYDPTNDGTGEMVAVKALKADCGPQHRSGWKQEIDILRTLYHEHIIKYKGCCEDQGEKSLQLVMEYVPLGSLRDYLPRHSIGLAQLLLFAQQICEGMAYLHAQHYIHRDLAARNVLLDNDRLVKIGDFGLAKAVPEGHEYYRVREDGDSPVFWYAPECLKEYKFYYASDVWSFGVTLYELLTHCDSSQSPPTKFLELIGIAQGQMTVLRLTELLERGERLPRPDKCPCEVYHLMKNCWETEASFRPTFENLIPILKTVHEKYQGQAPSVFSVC
Summary of the method: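 Phosphorylation of 8 μM Omnia Y12 peptide followed kinetically by Sox fluorescence, ex 360/em 485 nm, every 50 s for 45 min. Enzyme: 2 nM Tyk2 kinase domain (aa 886–1187, His tag removed); ATP at 10 μM (Km app) or 1 mM; buffer HEPES pH 7.4 with MgCl2, Triton X-100, DTT. 10-point curves up to 10 μM, IC50 from 4-parameter logistic fit.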

[3] = biological target: T3, JAK1 (Homo sapiens, UniProt P23458); assay: JAK1 Inhibition Assay (Omnia kinase fluorescence peptide substrate); settings: averaged IC50 ranges; 40 μM (Km app) or 1 mM ATP, 15 nM JAK1
T3 construct: purchased Invitrogen Corporation, Carlsbad, Calif; IVGN PV4775
T3 sequence (P23458 whole entry): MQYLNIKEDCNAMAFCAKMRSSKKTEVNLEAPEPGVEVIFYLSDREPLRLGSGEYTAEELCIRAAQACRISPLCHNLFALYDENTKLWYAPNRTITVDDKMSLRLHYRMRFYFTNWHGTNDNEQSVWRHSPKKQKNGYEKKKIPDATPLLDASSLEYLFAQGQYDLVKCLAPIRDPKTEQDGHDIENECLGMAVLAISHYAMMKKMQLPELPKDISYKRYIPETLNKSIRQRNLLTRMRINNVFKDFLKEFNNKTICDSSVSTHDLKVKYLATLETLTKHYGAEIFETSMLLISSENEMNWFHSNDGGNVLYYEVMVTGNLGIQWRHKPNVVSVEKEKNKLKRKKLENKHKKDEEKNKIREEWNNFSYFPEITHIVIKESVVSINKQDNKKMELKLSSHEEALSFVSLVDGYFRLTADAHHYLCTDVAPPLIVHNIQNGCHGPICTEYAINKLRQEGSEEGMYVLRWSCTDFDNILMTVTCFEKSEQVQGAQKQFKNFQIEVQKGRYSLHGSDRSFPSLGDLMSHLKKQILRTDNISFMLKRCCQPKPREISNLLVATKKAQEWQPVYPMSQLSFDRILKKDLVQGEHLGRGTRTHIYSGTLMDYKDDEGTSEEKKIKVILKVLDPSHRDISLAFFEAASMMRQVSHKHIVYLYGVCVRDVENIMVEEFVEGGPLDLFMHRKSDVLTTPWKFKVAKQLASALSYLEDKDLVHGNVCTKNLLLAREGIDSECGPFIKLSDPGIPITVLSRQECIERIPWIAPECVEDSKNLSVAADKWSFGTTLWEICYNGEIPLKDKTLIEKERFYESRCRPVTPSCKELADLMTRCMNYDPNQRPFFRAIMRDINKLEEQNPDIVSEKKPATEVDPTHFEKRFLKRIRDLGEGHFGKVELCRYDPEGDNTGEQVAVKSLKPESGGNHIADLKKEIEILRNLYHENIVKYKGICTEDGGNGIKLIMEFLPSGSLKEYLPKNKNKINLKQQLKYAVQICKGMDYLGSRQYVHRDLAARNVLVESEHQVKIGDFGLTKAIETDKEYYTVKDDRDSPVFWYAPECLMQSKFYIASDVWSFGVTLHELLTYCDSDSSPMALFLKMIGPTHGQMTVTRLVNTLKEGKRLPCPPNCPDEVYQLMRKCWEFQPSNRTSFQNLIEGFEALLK
Summary of the method: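 15 nM JAK1, 8 μM Omnia Y12 peptide, 40 μM (Km app) or 1 mM ATP; 25 mM HEPES pH 7.4, 10 mM MgCl2, 2% DMSO. Fluorescence (ex 360/em 485 nm) read every 50 s over 45 min. IC50 by 4-parameter fit of percent of control, top dose 10 μM.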

[4] = biological target: T4, JAK3 (Homo sapiens, UniProt P52333); assay: JAK3 Inhibition Assay (Omnia kinase fluorescence peptide substrate); settings: averaged IC50 ranges; 10 μM (Km app) or 1 mM ATP, 2.5 nM JAK3
T4 construct: purchased Invitrogen Corporation, Carlsbad, Calif; IVGN PV4080
T4 sequence (P52333 1-1124): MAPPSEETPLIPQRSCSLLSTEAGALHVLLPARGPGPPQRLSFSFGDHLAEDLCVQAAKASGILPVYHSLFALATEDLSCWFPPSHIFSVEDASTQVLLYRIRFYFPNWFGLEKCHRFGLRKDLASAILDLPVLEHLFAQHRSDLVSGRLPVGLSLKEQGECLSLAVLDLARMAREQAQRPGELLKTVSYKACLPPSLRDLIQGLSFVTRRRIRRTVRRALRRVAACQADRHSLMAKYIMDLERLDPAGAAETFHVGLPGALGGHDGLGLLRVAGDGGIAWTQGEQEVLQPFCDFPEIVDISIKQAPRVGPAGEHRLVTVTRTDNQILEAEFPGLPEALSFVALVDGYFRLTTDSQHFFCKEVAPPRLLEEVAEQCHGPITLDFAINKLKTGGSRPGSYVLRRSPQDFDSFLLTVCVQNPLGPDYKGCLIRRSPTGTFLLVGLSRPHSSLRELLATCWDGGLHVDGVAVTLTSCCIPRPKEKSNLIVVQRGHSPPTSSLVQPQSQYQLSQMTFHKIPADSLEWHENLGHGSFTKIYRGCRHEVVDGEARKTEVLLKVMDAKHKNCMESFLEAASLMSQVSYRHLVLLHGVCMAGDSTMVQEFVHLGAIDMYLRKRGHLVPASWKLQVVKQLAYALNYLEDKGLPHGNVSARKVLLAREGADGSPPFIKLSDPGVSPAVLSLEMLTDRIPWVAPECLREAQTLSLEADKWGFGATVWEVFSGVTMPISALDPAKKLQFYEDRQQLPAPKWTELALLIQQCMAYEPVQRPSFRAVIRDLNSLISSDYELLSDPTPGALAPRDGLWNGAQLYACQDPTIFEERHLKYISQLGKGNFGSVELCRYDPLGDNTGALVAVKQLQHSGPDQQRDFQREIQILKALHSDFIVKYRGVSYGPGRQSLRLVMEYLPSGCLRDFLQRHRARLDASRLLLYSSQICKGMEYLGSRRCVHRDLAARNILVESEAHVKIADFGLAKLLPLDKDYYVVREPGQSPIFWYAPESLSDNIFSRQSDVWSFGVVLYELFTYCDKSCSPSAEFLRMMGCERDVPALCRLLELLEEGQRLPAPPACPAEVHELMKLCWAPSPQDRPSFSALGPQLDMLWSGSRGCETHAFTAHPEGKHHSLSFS
Summary of the method: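 IC50 is the concentration giving 50 percent of control on a 4-parameter logistic fit of 10-point, 3-fold dilutions from a 10 μM top dose, at 2% final DMSO. Kinetic Sox fluorescence (360/485 nm) was monitored every 50 s for 45 min. Mix: JAK3 2.5 nM, Omnia Y7 peptide 10 μM, ATP 10 μM (Km app) or 1 mM, in HEPES pH 7.4 buffer with MgCl2, Triton X-100 and DTT.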

T1 sequence (O60674 whole entry): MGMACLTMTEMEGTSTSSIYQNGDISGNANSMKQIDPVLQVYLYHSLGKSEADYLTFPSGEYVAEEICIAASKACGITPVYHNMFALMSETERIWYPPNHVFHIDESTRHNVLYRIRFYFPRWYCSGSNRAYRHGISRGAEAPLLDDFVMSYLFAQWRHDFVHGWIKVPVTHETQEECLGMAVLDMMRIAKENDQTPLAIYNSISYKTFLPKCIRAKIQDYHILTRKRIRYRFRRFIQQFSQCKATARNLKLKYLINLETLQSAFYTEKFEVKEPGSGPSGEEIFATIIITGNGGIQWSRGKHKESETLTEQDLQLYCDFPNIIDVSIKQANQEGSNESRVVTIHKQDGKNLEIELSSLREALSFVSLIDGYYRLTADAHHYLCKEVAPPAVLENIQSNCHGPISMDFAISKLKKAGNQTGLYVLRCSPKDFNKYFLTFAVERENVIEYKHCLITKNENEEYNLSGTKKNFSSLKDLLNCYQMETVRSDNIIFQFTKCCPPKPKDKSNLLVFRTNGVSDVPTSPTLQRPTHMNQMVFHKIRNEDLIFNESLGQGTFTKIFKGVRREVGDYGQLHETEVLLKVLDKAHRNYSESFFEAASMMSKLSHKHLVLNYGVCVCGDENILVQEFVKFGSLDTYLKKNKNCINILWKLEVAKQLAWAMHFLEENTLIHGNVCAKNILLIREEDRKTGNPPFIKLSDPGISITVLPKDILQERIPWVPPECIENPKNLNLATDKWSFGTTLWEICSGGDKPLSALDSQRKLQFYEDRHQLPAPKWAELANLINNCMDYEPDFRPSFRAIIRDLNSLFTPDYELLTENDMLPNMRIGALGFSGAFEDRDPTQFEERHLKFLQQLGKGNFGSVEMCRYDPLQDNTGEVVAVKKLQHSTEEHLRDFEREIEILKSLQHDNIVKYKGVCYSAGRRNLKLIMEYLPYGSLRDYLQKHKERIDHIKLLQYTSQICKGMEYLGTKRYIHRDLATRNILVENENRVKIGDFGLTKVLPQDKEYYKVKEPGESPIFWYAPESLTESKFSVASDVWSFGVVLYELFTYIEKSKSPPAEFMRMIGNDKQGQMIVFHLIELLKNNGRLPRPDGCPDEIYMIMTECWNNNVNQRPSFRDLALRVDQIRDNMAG

`Cc1cc(-c2cc3nccn3c(-c3cnn(C4(CCF)CN(S(=O)(=O)C(F)(F)F)C4)c3)n2)[nH]n1` [Example 58, 5-(1-(3-(2-fluoroethyl)-1-((trifluoromethyl)sulfonyl)azetidin-3-yl)-1H-pyrazol-4-yl)-7-(3-methyl-1H-pyrazol-5-yl)imidazo[1,2-c]pyrimidine] was tested, and the IC50 [1] was 10 to 100 nM, the IC50 [2] was under 10 nM and the IC50 [3] was 100 to 1000 nM. For the same compound, the IC50 [4] was 100 to 1000 nM.
`CO[C@H](C)Cn1cc(-c2cc3nccn3c(-c3cnn(C4(CCF)CN(S(=O)(=O)C(F)(F)F)C4)c3)n2)cn1` [Example 59, (R)-5-(1-(3-(2-fluoroethyl)-1-((trifluoromethyl)sulfonyl)azetidin-3-yl)-1H-pyrazol-4-yl)-7-(1-(2-methoxypropyl)-1H-pyrazol-4-yl)imidazo[1,2-c]pyrimidine] was tested, and the IC50 [1] was 10 to 100 nM, the IC50 [2] was under 10 nM and the IC50 [3] was 100 to 1000 nM. It also gave an IC50 [4] of 100 to 1000 nM.
With `O=S(=O)(N1CC(CCF)(n2cc(-c3nc(-c4cnn(C5CCOCC5)c4)cc4nccn34)cn2)C1)C(F)(F)F` [Example 60, 5-(1-(3-(2-fluoroethyl)-1-((trifluoromethyl)sulfonyl)azetidin-3-yl)-1H-pyrazol-4-yl)-7-(1-(tetrahydro-2H-pyran-4-yl)-1H-pyrazol-4-yl)imidazo[1,2-c]pyrimidine] the IC50 [1] was under 10 nM, the IC50 [2] was under 10 nM and the IC50 [3] was 10 to 100 nM. It also gave an IC50 [4] of 100 to 1000 nM.
Work on `CC(=O)CC(C1CC1)n1cc(-c2nc(-c3cnn(C)c3)cc3nccn23)cn1` (centres unmarked) [Example 61, 4-cyclopropyl-4-(4-(7-(1-methyl-1H-pyrazol-4-yl)imidazo[1,2-c]pyrimidin-5-yl)-1H-pyrazol-1-yl)butan-2-one] yielded an IC50 [1] of 100 to 1000 nM, an IC50 [2] of 100 to 1000 nM and an IC50 [3] of over 1000 nM. The IC50 [4] was over 1000 nM.
Compound `CSCCC(C1CC1)n1cc(-c2nc(-c3cnn(C)c3)cc3nccn23)cn1` (centres unmarked) [Example 62, 5-(1-(1-cyclopropyl-3-(methylthio)propyl)-1H-pyrazol-4-yl)-7-(1-methyl-1H-pyrazol-4-yl)imidazo[1,2-c]pyrimidine] has an IC50 [1] of 10 to 100 nM, an IC50 [2] of 10 to 100 nM and an IC50 [3] of 100 to 1000 nM. For the same compound, the IC50 [4] was 100 to 1000 nM.
For `Cn1cc(-c2cc3nccn3c(-c3cnn(C(CC(N)=O)C4CC4)c3)n2)cn1` (centres unmarked) [Example 63, 3-cyclopropyl-3-(4-(7-(1-methyl-1H-pyrazol-4-yl)imidazo[1,2-c]pyrimidin-5-yl)-1H-pyrazol-1-yl)propanamide], the IC50 [1] was 100 to 1000 nM, the IC50 [2] was 100 to 1000 nM and the IC50 [3] was over 1000 nM. The IC50 [4] was over 1000 nM.
For `Cn1cc(-c2cc3nccn3c(-c3cnn(C4(CCF)CN(S(C)(=O)=O)C4)c3)n2)cn1` [Example 64, 5-(1-(3-(2-fluoroethyl)-1-(methylsulfonyl)azetidin-3-yl)-1H-pyrazol-4-yl)-7-(1-methyl-1H-pyrazol-4-yl)imidazo[1,2-c]pyrimidine], the IC50 [1] was 10 to 100 nM, the IC50 [2] was 10 to 100 nM and the IC50 [3] was 100 to 1000 nM. For the same compound, the IC50 [4] was 100 to 1000 nM.
`CCC(CCCO)n1cc(-c2nc(-c3cnn(C)c3)cc3nccn23)cn1` (centres unmarked) [Example 65, 4-(4-(7-(1-methyl-1H-pyrazol-4-yl)imidazo[1,2-c]pyrimidin-5-yl)-1H-pyrazol-1-yl)hexan-1-ol] showed an IC50 [1] of 100 to 1000 nM, an IC50 [2] of 10 to 100 nM and an IC50 [3] of 100 to 1000 nM. It also gave an IC50 [4] of 100 to 1000 nM.
`Cn1cc(-c2cc3nccn3c(-c3cnn(C(CCF)C4CCCC4)c3)n2)cn1` (centres unmarked) [Example 66, 5-(1-(1-cyclopentyl-3-fluoropropyl)-1H-pyrazol-4-yl)-7-(1-methyl-1H-pyrazol-4-yl)imidazo[1,2-c]pyrimidine] showed an IC50 [1] of 10 to 100 nM, an IC50 [2] of under 10 nM and an IC50 [3] of 100 to 1000 nM. For the same compound, the IC50 [4] was 100 to 1000 nM.
Compound `CCOCCC(C1CCC1)n1cc(-c2nc(-c3cnn(C)c3)cc3nccn23)cn1` (centres unmarked) [Example 67, 5-(1-(1-cyclobutyl-3-ethoxypropyl)-1H-pyrazol-4-yl)-7-(1-methyl-1H-pyrazol-4-yl)imidazo[1,2-c]pyrimidine] has an IC50 [1] of 100 to 1000 nM, an IC50 [2] of 100 to 1000 nM and an IC50 [3] of over 1000 nM. It also gave an IC50 [4] of over 1000 nM.
Compound `Cn1cc(-c2cc3nccn3c(-c3cnn(C(CCO)C4CCC4)c3)n2)cn1` (centres unmarked) [Example 68, 3-cyclobutyl-3-(4-(7-(1-methyl-1H-pyrazol-4-yl)imidazo[1,2-c]pyrimidin-5-yl)-1H-pyrazol-1-yl)propan-1-ol] has an IC50 [1] of over 1000 nM, an IC50 [2] of 100 to 1000 nM and an IC50 [3] of over 1000 nM. It also gave an IC50 [4] of over 1000 nM.
For `Cn1cc(-c2cc3nccn3c(-c3cnn(C(CCF)C4CCC4)c3)n2)cn1` (centres unmarked) [Example 69, 5-(1-(1-cyclobutyl-3-fluoropropyl)-1H-pyrazol-4-yl)-7-(1-methyl-1H-pyrazol-4-yl)imidazo[1,2-c]pyrimidine], the IC50 [1] was 10 to 100 nM, the IC50 [2] was under 10 nM and the IC50 [3] was 100 to 1000 nM. The IC50 [4] was 100 to 1000 nM.
With `COCCC(C1CCCC1)n1cc(-c2nc(-c3cnn(C)c3)cc3nccn23)cn1` (centres unmarked) [Example 70, 5-(1-(1-cyclopentyl-3-methoxypropyl)-1H-pyrazol-4-yl)-7-(1-methyl-1H-pyrazol-4-yl)imidazo[1,2-c]pyrimidine] the IC50 [1] was over 1000 nM, the IC50 [2] was 100 to 1000 nM and the IC50 [3] was over 1000 nM. It also gave an IC50 [4] of over 1000 nM.
In the case of `COCCC(C1CCCCC1)n1cc(-c2nc(-c3cnn(C)c3)cc3nccn23)cn1` (centres unmarked) [Example 71, 5-(1-(1-cyclohexyl-3-methoxypropyl)-1H-pyrazol-4-yl)-7-(1-methyl-1H-pyrazol-4-yl)imidazo[1,2-c]pyrimidine], the IC50 [1] is reported as over 1000 nM, the IC50 [2] is reported as over 1000 nM and the IC50 [3] is reported as over 1000 nM. It also gave an IC50 [4] of over 1000 nM.
With `Cn1cc(-c2cc3nccn3c(-c3cnn(C(CCO)C4CCCC4)c3)n2)cn1` (centres unmarked) [Example 72, 3-cyclopentyl-3-(4-(7-(1-methyl-1H-pyrazol-4-yl)imidazo[1,2-c]pyrimidin-5-yl)-1H-pyrazol-1-yl)propan-1-ol] the IC50 [1] was over 1000 nM, the IC50 [2] was 100 to 1000 nM and the IC50 [3] was over 1000 nM. It also gave an IC50 [4] of over 1000 nM.
Compound `Cn1cc(-c2cc3nccn3c(-c3cnn(C(CCO)C4CCCCC4)c3)n2)cn1` (centres unmarked) [Example 73, 3-cyclohexyl-3-(4-(7-(1-methyl-1H-pyrazol-4-yl)imidazo[1,2-c]pyrimidin-5-yl)-1H-pyrazol-1-yl)propan-1-ol] has an IC50 [1] of 100 to 1000 nM, an IC50 [2] of 100 to 1000 nM and an IC50 [3] of over 1000 nM. It also gave an IC50 [4] of over 1000 nM.
`COCCC(C1CC1)n1cc(-c2nc(-c3cnn(C)c3)cc3nccn23)cn1` (centres unmarked) [Example 74, 5-(1-(1-cyclopropyl-3-methoxypropyl)-1H-pyrazol-4-yl)-7-(1-methyl-1H-pyrazol-4-yl)imidazo[1,2-c]pyrimidine] was tested, and the IC50 [1] was 100 to 1000 nM, the IC50 [2] was 10 to 100 nM and the IC50 [3] was over 1000 nM. The IC50 [4] was over 1000 nM.
